These results are taken from ChEMBL document CHEMBL1146870, “N-Tetrahydroquinolinyl, N-quinolinyl and N-isoquinolinyl biaryl carboxamides as antagonists of TRPV1” (Bioorg Med Chem Lett, 2006).

Data set [1] has as its target T1, Transient receptor potential cation channel subfamily V member 1 (Homo sapiens, UniProt Q8NER1). Description: Antagonist activity against human TRPV1 assessed as inhibition of capsaicin-induced calcium influx by FLIPR assay. It is filed as functional.
For the next data set, the species on record is Homo sapiens. Description: Intrinsic clearance in human liver microsomes. It is filed as ADME, Microsome. A general note: Liver microsomes are vesicles of endoplasmic reticulum, rich in cytochrome P450 enzymes.
For another data set, the target named is Cytochrome P450 2C19 (Homo sapiens, UniProt P33261). The data set can be described thus: Inhibition of cytochrome P450 2C19. It is filed as ADME.
Chain of Cytochrome P450 2C19 (P33261 whole entry): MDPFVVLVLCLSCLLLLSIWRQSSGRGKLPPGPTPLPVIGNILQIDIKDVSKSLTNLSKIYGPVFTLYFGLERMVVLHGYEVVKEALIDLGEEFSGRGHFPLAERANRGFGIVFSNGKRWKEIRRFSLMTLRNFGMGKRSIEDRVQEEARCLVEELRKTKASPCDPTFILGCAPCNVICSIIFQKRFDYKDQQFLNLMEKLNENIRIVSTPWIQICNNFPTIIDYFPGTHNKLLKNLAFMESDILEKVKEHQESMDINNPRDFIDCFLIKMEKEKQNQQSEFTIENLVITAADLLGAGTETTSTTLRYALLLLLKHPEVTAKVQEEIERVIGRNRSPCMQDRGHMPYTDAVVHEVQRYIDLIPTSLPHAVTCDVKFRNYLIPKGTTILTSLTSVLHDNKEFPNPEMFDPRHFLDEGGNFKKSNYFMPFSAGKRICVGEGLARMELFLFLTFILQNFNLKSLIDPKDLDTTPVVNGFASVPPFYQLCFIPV
Another data set relates to Cavia porcellus. The data set can be described thus: Inhibition of Freund's complete adjuvant-induced inflammatory hyperalgesia in guinea pig at 30 mg/kg, sc. It is filed as functional. The conditions noted are these: route subcutaneous.
Data set [2] has as its target Transient receptor potential cation channel subfamily V member 1 (Rattus norvegicus, UniProt O35433). The data set can be described thus: Antagonist activity against rat TRPV1 assessed as inhibition of acid-induced calcium influx by FLIPR assay. It is filed as functional.
In a further data set the target is Cytochrome P450 3A4 (Homo sapiens, UniProt P08684). Description: Inhibition of cytochrome P450 3A4. It is filed as ADME.
Chain of Cytochrome P450 3A4 (P08684 whole entry): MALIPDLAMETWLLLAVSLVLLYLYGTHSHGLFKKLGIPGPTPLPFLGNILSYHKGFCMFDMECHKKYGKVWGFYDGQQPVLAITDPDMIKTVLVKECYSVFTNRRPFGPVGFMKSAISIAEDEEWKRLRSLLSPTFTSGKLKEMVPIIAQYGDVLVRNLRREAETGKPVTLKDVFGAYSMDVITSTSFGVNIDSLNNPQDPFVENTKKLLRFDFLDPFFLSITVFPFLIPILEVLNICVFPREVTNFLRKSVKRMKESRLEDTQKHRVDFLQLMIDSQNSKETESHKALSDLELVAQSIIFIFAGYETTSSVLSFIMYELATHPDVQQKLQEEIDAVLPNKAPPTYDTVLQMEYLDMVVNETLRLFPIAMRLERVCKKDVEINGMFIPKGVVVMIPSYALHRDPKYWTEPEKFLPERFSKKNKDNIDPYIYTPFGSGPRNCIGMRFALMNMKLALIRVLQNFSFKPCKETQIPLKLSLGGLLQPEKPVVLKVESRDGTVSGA
For another data set, the target named is Cytochrome P450 2C9 (Homo sapiens, UniProt P11712). Description: Inhibition of cytochrome P450 2C9. It is filed as ADME.
Chain of Cytochrome P450 2C9 (P11712 whole entry): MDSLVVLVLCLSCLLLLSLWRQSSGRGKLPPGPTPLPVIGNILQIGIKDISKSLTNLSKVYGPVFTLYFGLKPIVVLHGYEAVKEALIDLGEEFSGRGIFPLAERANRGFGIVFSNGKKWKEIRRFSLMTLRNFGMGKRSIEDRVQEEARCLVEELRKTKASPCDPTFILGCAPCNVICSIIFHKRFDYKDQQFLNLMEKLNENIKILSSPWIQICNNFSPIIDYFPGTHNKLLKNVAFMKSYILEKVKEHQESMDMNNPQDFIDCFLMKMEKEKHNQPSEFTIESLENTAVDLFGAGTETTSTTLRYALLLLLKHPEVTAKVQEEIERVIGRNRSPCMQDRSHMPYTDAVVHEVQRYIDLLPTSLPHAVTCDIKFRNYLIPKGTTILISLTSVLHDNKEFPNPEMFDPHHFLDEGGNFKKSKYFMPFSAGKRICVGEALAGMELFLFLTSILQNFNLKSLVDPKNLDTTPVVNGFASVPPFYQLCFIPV
Data set [3] has as its target T1, Transient receptor potential cation channel subfamily V member 1. Description: Antagonist activity against human TRPV1 assessed as inhibition of acid-induced calcium influx by FLIPR assay. It is filed as functional.
Data set [4] concerns the target Transient receptor potential cation channel subfamily V member 1 (Rattus norvegicus) (UniProt O35433).
Description: Antagonist activity against rat TRPV1 assessed as inhibition of capsaicin-induced calcium influx by FLIPR assay
The next data set has as its target Cytochrome P450 2D6 (Homo sapiens, UniProt P10635). Description: Inhibition of cytochrome P450 2D6. It is filed as ADME.
For data set [5], the target named is Transient receptor potential cation channel subfamily V member 1 (Cavia porcellus) (UniProt Q6R5A3).
Chain of Transient receptor potential cation channel subfamily V member 1 (Cavia porcellus) (Q6R5A3 whole entry): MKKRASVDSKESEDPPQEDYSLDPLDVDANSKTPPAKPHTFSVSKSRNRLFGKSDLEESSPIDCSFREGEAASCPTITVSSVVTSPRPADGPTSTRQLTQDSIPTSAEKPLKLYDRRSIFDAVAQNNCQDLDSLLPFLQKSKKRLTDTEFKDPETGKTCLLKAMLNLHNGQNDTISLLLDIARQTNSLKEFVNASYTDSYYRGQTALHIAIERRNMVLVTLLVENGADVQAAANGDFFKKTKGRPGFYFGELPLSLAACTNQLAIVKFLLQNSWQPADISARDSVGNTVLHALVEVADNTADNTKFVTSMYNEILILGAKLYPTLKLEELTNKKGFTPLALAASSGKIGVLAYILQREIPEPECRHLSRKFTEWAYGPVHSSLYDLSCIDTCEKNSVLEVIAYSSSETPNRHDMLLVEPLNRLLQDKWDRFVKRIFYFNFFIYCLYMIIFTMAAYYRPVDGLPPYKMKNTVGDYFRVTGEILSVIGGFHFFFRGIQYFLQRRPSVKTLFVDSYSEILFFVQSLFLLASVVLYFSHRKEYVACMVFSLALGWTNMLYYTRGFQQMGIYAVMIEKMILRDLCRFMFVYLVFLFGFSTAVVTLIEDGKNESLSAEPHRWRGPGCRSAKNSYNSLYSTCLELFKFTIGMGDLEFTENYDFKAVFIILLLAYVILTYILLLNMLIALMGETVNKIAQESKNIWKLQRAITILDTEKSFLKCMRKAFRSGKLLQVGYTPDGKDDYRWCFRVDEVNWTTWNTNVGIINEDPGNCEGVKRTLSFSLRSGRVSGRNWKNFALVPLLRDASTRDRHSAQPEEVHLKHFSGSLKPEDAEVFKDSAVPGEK
Description: Antagonist activity against guinea pig TRPV1 assessed as inhibition of capsaicin-induced calcium influx by FLIPR assay
In the next data set the target is T2, Cytochrome P450 1A2 (Homo sapiens, UniProt P05177).
T2 sequence (P05177 whole entry): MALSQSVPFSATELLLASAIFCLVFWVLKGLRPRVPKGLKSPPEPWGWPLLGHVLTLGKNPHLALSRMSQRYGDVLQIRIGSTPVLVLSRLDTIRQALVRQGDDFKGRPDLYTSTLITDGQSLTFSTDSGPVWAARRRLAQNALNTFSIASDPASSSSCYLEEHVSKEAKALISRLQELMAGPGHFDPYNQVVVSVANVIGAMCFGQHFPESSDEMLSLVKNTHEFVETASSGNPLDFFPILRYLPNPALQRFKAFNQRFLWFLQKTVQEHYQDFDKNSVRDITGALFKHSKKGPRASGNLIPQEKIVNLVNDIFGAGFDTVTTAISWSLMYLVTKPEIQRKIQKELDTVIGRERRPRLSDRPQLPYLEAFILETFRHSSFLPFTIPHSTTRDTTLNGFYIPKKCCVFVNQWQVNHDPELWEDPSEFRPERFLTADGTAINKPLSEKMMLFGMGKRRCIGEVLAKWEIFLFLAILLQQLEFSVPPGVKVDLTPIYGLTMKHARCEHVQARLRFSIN
Description: Inhibition of cytochrome P450 1A2. It is filed as ADME.

The structures appear in SMILES notation. Bounds are passed on as bounds.

T1 sequence (Q8NER1 whole entry): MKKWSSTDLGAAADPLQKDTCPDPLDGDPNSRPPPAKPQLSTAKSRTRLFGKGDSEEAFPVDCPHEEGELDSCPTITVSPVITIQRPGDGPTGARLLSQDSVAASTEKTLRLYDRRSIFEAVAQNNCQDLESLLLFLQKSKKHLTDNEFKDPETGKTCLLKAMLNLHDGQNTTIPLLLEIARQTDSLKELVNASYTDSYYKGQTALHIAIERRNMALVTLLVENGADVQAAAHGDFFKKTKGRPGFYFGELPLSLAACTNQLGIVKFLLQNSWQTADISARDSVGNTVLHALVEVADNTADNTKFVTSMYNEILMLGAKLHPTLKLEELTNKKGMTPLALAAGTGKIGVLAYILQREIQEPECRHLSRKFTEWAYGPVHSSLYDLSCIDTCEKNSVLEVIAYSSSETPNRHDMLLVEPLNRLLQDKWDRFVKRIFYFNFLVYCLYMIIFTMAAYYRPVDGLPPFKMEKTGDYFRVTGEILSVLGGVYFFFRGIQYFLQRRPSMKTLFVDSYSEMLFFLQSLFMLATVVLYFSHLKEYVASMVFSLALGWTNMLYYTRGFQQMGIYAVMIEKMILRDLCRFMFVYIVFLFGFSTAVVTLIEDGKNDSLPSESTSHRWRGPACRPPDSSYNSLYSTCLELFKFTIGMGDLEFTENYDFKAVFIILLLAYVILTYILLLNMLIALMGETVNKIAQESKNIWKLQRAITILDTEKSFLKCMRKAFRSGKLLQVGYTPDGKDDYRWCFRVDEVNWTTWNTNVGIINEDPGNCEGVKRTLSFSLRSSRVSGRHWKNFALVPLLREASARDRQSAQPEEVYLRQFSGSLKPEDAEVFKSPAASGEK
Chain of Cytochrome P450 2D6 (P10635 whole entry): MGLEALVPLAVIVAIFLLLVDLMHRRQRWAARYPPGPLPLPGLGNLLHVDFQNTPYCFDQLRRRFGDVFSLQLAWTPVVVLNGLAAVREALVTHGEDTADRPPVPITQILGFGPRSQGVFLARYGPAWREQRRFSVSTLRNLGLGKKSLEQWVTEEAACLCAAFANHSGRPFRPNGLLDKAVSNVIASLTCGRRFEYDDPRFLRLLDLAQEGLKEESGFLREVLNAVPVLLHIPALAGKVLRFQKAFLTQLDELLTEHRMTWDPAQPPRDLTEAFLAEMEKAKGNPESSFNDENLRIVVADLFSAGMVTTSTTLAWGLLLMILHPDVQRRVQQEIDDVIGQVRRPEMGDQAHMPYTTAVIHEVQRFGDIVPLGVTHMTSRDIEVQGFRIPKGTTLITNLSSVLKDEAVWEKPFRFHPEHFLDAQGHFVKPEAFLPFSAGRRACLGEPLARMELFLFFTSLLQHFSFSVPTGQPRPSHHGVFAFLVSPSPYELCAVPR
Chain of Transient receptor potential cation channel subfamily V member 1 (Rattus norvegicus) (O35433 whole entry): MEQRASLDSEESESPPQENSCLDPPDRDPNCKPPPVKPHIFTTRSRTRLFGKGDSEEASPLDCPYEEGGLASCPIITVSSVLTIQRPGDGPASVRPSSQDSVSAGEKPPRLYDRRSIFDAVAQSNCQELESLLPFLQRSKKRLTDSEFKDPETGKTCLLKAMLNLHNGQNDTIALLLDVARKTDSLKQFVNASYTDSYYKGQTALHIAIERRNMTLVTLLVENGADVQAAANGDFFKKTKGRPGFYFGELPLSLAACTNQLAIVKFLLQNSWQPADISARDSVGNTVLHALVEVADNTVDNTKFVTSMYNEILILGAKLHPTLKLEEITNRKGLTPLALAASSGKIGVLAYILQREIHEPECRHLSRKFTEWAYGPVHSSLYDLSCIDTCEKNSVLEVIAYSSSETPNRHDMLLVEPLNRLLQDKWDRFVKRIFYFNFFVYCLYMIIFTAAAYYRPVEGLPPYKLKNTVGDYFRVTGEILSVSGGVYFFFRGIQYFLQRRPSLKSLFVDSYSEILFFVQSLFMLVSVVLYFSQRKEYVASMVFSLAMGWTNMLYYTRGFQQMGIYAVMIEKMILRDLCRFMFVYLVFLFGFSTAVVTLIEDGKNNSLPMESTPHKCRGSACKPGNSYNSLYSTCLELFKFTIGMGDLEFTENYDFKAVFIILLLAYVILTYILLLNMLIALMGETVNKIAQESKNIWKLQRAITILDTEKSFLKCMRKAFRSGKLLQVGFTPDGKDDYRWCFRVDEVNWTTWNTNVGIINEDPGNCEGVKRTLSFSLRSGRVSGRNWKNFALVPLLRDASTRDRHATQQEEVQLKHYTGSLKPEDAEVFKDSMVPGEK
Chain of Transient receptor potential cation channel subfamily V member 1 (Rattus norvegicus, UniProt O35433) (O35433 whole entry): as above

In the case of `CC(=O)NCCN1CCCc2ccc(NC(=O)c3ccc(-c4ccccc4)cc3)cc21`, the pKb in data set [1] turned out to be 6.9.

`COCCN1CCCc2ccc(NC(=O)c3ccc(-c4ccccc4)cc3)cc21`: the negative logarithm of the Kb (pKb) in data set [1] was 7.3.

Turning to `O=C(Nc1ccc2ncccc2c1)c1ccc(-c2ccccc2)cc1`, the pKb in [1] stood at 6.9.

On to `CN1CCCc2ccc(NC(=O)c3ccccc3-c3ccccc3)cc21`, for which the negative-log Kb (pKb) in data set [1] was less than 6.6.

In the case of `CN(C)C(=O)c1ccc(-c2ccc(C(=O)Nc3ccc4c(c3)N(C)CCC4)cc2)cc1`, in [1], the negative logarithm of the Kb (pKb) is 7.1.

As to `O=C(Nc1cccc2cccnc12)c1ccc(-c2ccccc2)cc1`, the pKb in [1] was less than 6.5.

In the data set filed under Homo sapiens, `CN1CCCc2ccc(NC(=O)c3ccc(-c4ccccc4)nc3)cc21` returned a CL of 4 mL/min/g. For the same compound, the pKb in data set [1] is 7.8.

Consider `Cc1ccc2ccc(NC(=O)c3ccc(-c4ccccc4)cc3)cc2n1`, for which the pKb in data set [1] turned out to be 8.

In the case of `O=C(Nc1cccc2cnccc12)c1ccc(-c2ccccc2)cc1`, the pKb in data set [1] amounted to 7.7.

For the compound `CN1CCCc2cccc(NC(=O)c3ccc(-c4ccccc4)cc3)c21`, the negative-log Kb (pKb) in [1] is less than 6.3.

Regarding `CN1CCCc2ccc(NC(=O)c3ccc(-c4cncnc4)cc3)cc21`, the negative logarithm of the Kb (pKb) in data set [1] came to 6.9.

`CN1CCCc2ccc(NC(=O)c3ccc(-n4cccn4)cc3)cc21`: in [1], the pKb is 6.9.

For the compound `CN1CCCc2ccc(NC(=O)c3ccc(-c4ccsc4)cc3)cc21`, the pKb in data set [1] was 7.8.

Take `COCC(=O)N1CCCc2ccc(NC(=O)c3ccc(-c4ccccc4)cc3)cc21`: in data set [1], the pKb stood at 7.2.

In the case of `CN1CCCc2ccc(NC(=O)c3ccc(-c4ccccc4)cc3)cc21`, in the data set listed under Homo sapiens, the CL was determined as 7 mL/min/g. Besides, the pKb in data set [1] came out at 7.5.

`CN1CCCc2ccc(NC(=O)c3ccc(-c4ccccc4)cc3Cl)cc21`: the negative logarithm of the Kb (pKb) in [1] amounted to 7.1.

For the compound `CNS(=O)(=O)c1cccc(-c2ccc(C(=O)Nc3ccc4c(c3)N(C)CCC4)cc2)c1`, in [1], the pKb worked out at 7.

As for `CN1CCCc2ccc(NC(=O)c3ccc(-c4ccccc4)s3)cc21`, the pKb in [1] was 7.

With `CN1CCCc2ccc(NC(=O)c3cnc(-c4ccccc4)cn3)cc21`, the negative-log Kb (pKb) in data set [1] is less than 6.8.

For the compound `Cc1cc(C(=O)Nc2ccc3c(c2)N(C)CCC3)ccc1-c1ccccc1`, the pKb in data set [1] was 7.4.

As for `O=C(Nc1ccc2ccc(O)nc2c1)c1ccc(-c2ccccc2)cc1`, the pKb in data set [1] was 8.5.

On to `CN1CCCc2ccc(NC(=O)c3cccc(-c4ccccc4)c3)cc21`, for which the negative-log Kb (pKb) in data set [1] is less than 6.8.

For `CN1CCCc2ccc(NC(=O)c3ccc(-c4cnccn4)cc3)cc21`, the pKb in data set [1] stood at 7.1.

As for `O=C(Nc1ccc2cccnc2c1)c1ccc(-c2ccccc2)cc1`, the pKb in data set [1] is 9.4.

Take `O=C(Nc1ccc2c(c1)NCCC2)c1ccc(-c2ccccc2)cc1`: in data set [1], the pKb was found to be 7.7.

Turning to `CN1CCCc2cc(NC(=O)c3ccc(-c4ccccc4)cc3)ccc21`, the pKb in data set [1] came out at 7.1.

For `CC(=O)N1CCCc2ccc(NC(=O)c3ccc(-c4ccccc4)cc3)cc21`, the pKb in [1] is 7.2.

Consider `COc1cc(-c2ccccc2)ccc1C(=O)Nc1ccc2c(c1)N(C)CCC2`, for which the negative logarithm of the Kb (pKb) in [1] was less than 6.8.

Consider `CN1CCCc2c(NC(=O)c3ccc(-c4ccccc4)cc3)cccc21`, for which, in data set [1], the negative-log Kb (pKb) was less than 6.5.

In the case of `O=C(Nc1ccc2ccncc2c1)c1ccc(-c2ccccc2)cc1`, in data set [1], the pKb was determined as 7.4.

Consider `O=C(Nc1ccc2cnccc2c1)c1ccc(-c2ccccc2)cc1`, for which the negative-log Kb (pKb) in data set [1] was 7.7.

`CN1CCCc2ccc(NC(=O)c3ccc(-c4cccs4)cc3)cc21`: the negative-log Kb (pKb) in data set [1] was 7.6.

As to `CC(=O)c1cccc(-c2ccc(C(=O)Nc3ccc4c(c3)N(C)CCC4)cc2)c1`, the pKb in data set [1] stood at 7.

In the case of `CN(C)CCN1CCCc2ccc(NC(=O)c3ccc(-c4ccccc4)cc3)cc21`, in data set [1], the negative-log Kb (pKb) came to 7.4.

As for `O=C(Nc1ccc2cccnc2c1)c1ccc(-c2ccccc2)nc1`, the half-inhibitory concentration (IC50) on Cytochrome P450 2C19 is more than 18 µM; in data set [2] it was 0.0251 µM; at Cytochrome P450 3A4 it was more than 18 µM; at Cytochrome P450 2C9, more than 18 µM; in data set [3] it was 0.00794 µM; against Cytochrome P450 2D6 it was more than 18 µM. In addition, the half-maximal inhibitory concentration (IC50) at Cytochrome P450 1A2 was more than 18 µM. Also, the inhibition in vivo at 30 mg/kg in the data set with Cavia porcellus is 32%. The negative-log Kb (pKb) in [4] and in data set [5] was 8.4 in each case. In the data set listed under Homo sapiens, this compound gave a CL of less than 5 mL/min/g.

Turning to `O=C(Nc1cccc2ncccc12)c1ccc(-c2ccccc2)cc1`, the pKb in data set [1] is less than 6.5.

A word on the pKb: it is −log10 of the Kb, conventionally taken in molar units. For orientation: IC50 means the concentration that gives 50% inhibition. By inhibition in vivo is commonly meant the share of the control response that was lost under treatment.
